Laboratory results as given in ChEMBL document CHEMBL1131950, “Reversal of P-glycoprotein mediated multidrug resistance by novel anthranilamide derivatives” (Bioorg Med Chem Lett, 1999).
pEC50, pIC50: −log10 of the molar value.

Each compound was assayed on EMT6 (assay: Reversal effect on the accumulation of [3H]- daunorubicin in mouse mammary carcinoma cell line EMT6/AR 1.0). Conditions: not given.
Assay type: functional, cell-based

Row | pIC50 | Structure (SMILES)
1 | 7.42 | COc1cc2c(cc1OC)CN(CCc1ccc(NC(=O)c3cc(OC)c(OC)cc3NC(=O)c3cnc4ccccc4c3)cc1)CC2 [TARIQUIDAR]

Same assay, conditions: read-out: IC50

Row | pIC50 | Structure (SMILES)
2 | 6.10 | COc1cc2c(cc1OC)CN(CCc1ccc(NC(=O)c3ccccc3NC(=O)c3ccc4ccccc4n3)cc1)CC2
3 | 5.77 | COc1cc2c(cc1OC)CN(CCc1ccc(NC(=O)c3ccccc3-c3ccccc3)cc1)CC2
4 | 7.06 | COc1cc2c(cc1OC)CN(CCc1ccc(NC(=O)c3ccccc3NC(=O)c3cnc4ccccc4c3)cc1)CC2
5 | 6.60 | COc1cc2c(cc1OC)CN(CCc1ccc(NC(=O)c3ccccc3NC(=O)c3ccccc3)cc1)CC2
6 | 6.69 | COc1cc2c(cc1OC)CN(CCc1ccc(NC(=O)c3ccccc3NC(=O)c3cnccn3)cc1)CC2
7 | 5.57 | COc1cc2c(cc1OC)CN(CCc1ccc(NC(=O)c3ccccc3Oc3ccccc3)cc1)CC2
8 | 6.66 | COc1cc2c(cc1OC)CN(CCc1ccc(NC(=O)c3cc(C)ccc3NC(=O)c3cnc4ccccc4c3)cc1)CC2
9 | 6.85 | COc1cc2c(cc1OC)CN(CCc1ccc(NC(=O)c3ccc(Cl)cc3NC(=O)c3cnc4ccccc4c3)cc1)CC2
10 | 6.04 | COc1cc2c(cc1OC)CN(CCc1ccc(NC(=O)c3ccccc3NC(=O)c3ccoc3)cc1)CC2
11 | 5.80 | COc1cc2c(cc1OC)CN(CCNC(=O)c1ccccc1NC(=O)c1ccc(C3CCCCC3)cc1)CC2
12 | 5.30 | COc1ccc(CCn2c(-c3ccc(N(C)C)cc3)nc3ccccc3c2=O)cc1OC
13 | 6.83 | COc1cc2c(cc1OC)CN(CCc1ccc(NC(=O)c3cc(Cl)ccc3NC(=O)c3cnc4ccccc4c3)cc1)CC2
14 | 7.17 | COc1cc2c(cc1OC)CN(CCc1ccc(NC(=O)c3ccccc3NC(=O)c3ccc(C)nc3)cc1)CC2
15 | 7.04 | COc1cc2c(cc1OC)CN(CCc1ccc(NC(=O)c3ccccc3NC(=O)c3cnc4ccccc4n3)cc1)CC2
16 | 7.22 | COc1cc2c(cc1OC)CN(CCc1ccc(NC(=O)c3cc(F)ccc3NC(=O)c3cnc4ccccc4c3)cc1)CC2
17 | 7.42 | COc1cc2c(cc1OC)CN(CCc1ccc(NC(=O)c3ccc(F)cc3NC(=O)c3cnc4ccccc4c3)cc1)CC2

Row | pIC50 | Structure (SMILES)
18 | 6.06 | COc1cc2c(cc1OC)CN(CCc1ccc(NC(=O)c3ccccc3NC(=O)c3cccnc3)cc1)CC2
19 | 7.35 | COc1cc2c(cc1OC)CN(CCc1ccc(NC(=O)c3ccc([N+](=O)[O-])cc3NC(=O)c3cnc4ccccc4c3)cc1)CC2
20 | 6.66 | COc1cc2c(cc1OC)CN(CCc1ccc(NC(=O)c3cccc(/C=c4\[nH]c(=O)/c(=C/c5ccccc5)n(C)c4=O)c3)cc1)CC2
21 | 5.96 | COc1cc2c(cc1OC)CN(CCc1ccc(NC(=O)c3ccccc3C(=O)c3ccccc3)cc1)CC2
22 | 5.31 | COc1cc2c(cc1OC)CN(CCc1ccc(NC(=O)c3ccccc3NC(=O)c3cc4ccccc4cn3)cc1)CC2
23 | 5.62 | COc1cc2c(cc1OC)CN(CCNC(=O)c1ccccc1NC(=O)c1ccc(N(C)C)cc1)CC2
24 | 6.17 | COc1cc2c(cc1OC)CN(CCc1ccc(NC(=O)c3ccccc3NC(=O)c3ccccn3)cc1)CC2
25 | 6.07 | COc1cc2c(cc1OC)CN(CCc1ccc(NC(=O)c3ccccc3NC(=O)c3ccc(C(C)C)cc3)cc1)CC2
26 | 5.48 | COc1cc2c(cc1OC)CN(CCc1ccc(NC(=O)c3ccccc3NC(=O)c3ccco3)cc1)CC2
27 | 6.14 | COc1cc2c(cc1OC)CN(CCc1ccc(NC(=O)c3ccccc3NC(=O)c3ccsc3)cc1)CC2
28 | 5.64 | COc1cc2c(cc1OC)CN(CCc1ccc(NC(=O)c3ccccc3Sc3ccccc3)cc1)CC2
29 | 5.96 | COc1cc2c(cc1OC)CN(CCNC(=O)c1ccccc1NC(=O)c1ccc(C(C)C)cc1)CC2
30 | 7.17 | COc1cc2c(cc1OC)CN(CCc1ccc(NC(=O)c3ccccc3NC(=O)c3cnc(C)cn3)cc1)CC2
31 | 5.17 | COc1cc2c(cc1OC)CN(CCNC(=O)c1ccccc1NC(=O)c1ccccc1)CC2
32 | 6.53 | COc1cc2c(cc1OC)CN(CCc1ccc(NC(=O)c3cc(N(C)C)ccc3NC(=O)c3cnc4ccccc4c3)cc1)CC2

What follows are compounds tested on MDR (assay: Potency tested against multidrug resistance (MDR) cell lines expressing P-gp (P-glycoprotein)). Conditions: not given.
Assay type: functional, cell-based

Row | pEC50 | Structure (SMILES)
33 | 7.79 | COc1cc2c(cc1OC)CN(CCc1ccc(NC(=O)c3cc(OC)c(OC)cc3NC(=O)c3cnc4ccccc4c3)cc1)CC2 [TARIQUIDAR]
34 | 7.52 | COc1cc2c(cc1OC)CN(CCc1ccc(NC(=O)c3ccccc3NC(=O)c3cnc4ccccc4c3)cc1)CC2
35 | 7.72 | COc1cc2c(cc1OC)CN(CCc1ccc(NC(=O)c3ccccc3NC(=O)c3cnc4ccccc4n3)cc1)CC2
36 | 7.57 | COc1cc2c(cc1OC)CN(CCc1ccc(NC(=O)c3cc(F)ccc3NC(=O)c3cnc4ccccc4c3)cc1)CC2
